This is an account of results in patent US8436155B2, “7,2″-dehydrate puerarin and its salts, preparation method and use thereof” (Shandong University, priority 2010, dated 2013).

In test [1] the test system is rat arrhythmias. Description: Antiarrhythmic experiment: arrhythmia induced by 0.1% BaCl2 in rats, ECG monitored for 30 min. The note with it: for Arrhythmia duration: if not restored within 30 min, the record was 30 min. It counts as in vivo, Wistar rats. The protocol: 1. Method: 60 male, healthy adult Wistar rats with body weight of 180-220 g were randomly divided into 6 groups, i.e., a normal saline group, a propylene glycol solvent gavage group, a propylene glycol solvent intravenous injection group, a puerarin injection group, a 7,2″-dehydrate puerarin gavage group, and a 7,2″-dehydrate puerarin intravenous injection group, with 10 rats each group. The intravenous injection was carried out one time a day for three consecutive days. The gavage was carried out two times a day for three consecutive days. The normal saline group was administered with equal volume of 0.9% NaCl injection. The dose of the propylene glycol solvent gavage group was 14.3% propylene glycol 1 mL/100 g. The dose of the propylene glycol solvent intravenous injection group was 40% propylene glycol 0.5 mL/100 g. The dose of the puerarin injection group was 50 mg/kg. The dose of the 7,2″-dehydrate puerarin gavage group was 60 mg/kg. The dose of the 7,2″-dehydrate puerarin intravenous injection group was 30 mg/kg. The rats were anesthetized with 10% chloral hydrate (0.35 mL/100 g) by intraperitoneal injection and fixed in the back. A BL-410 biological functional system was introduced to monitor the ECG changes of the rats. A femoral vein of the rats was exposed, a scalp needle inserted, and a constant speed syringe pump connected. 0.1% BaCl2 was pumped with a dose of 0.1 mL/100 g and a speed of 0.6 mL/min. From the injection of BaCl2 on, the ECGs were monitored and recorded within 30 min. The arrhythmia latency and arrhythmia duration were recorded (if not restored within 30 min, the record was 30 min). The experimental results were collected and analyzed using Software SPSS. If P<0.05, the results has significant difference.

Test [2] concerns rabbit blood coagulation. Briefly: Anticoagulation experiment in vitro: coagulation time of oxalated rabbit blood after adding CaCl2. The note with it: 37±0.5° C., x ± SD. The protocol: 1. Method: A rabbit was weighed and injected with 3% sodium pentobarbital 1 mL/kg via an ear vein, and then anaesthetized. […] The resulting solution was shaken uniformly and put into a constant temperature water bath (37±0.5° C.). Every 30 seconds, the small test tubes were tilted slightly once, and the coagulation time was recorded (the test tubes were tilted slightly, if no blood bled, the time was recorded as coagulation time). The experimental results were collected and analyzed using Software SPSS. If P<0.05, the results has significant difference.

Test [3] relates to platelet aggregation. The settings on record: in vitro, dose-dependent; read-out: IC50, inhibition on platelet aggregation in vitro; cited from earlier work.

In the case of `O=c1c(-c2ccc(O)cc2)coc2c([C@@H]3O[C@H](CO)[C@@H](O)[C@H](O)[C@H]3O)c(O)ccc12` [Puerarin], the Arrhythmia duration in test [1] (puerarin injection group, 50 mg/kg) is 30 min. Moreover, the Arrhythmia latency in test [1] (puerarin injection group, 50 mg/kg, once a day for three days, x ± SD) amounted to 86.75 ± 42.55 s. Also, the coagulation time in test [2] (3 mg/mL) stood at 15.3 ± 2.4 min.
With `O=c1c(-c2ccc(O)cc2)coc2c3c(ccc12)O[C@@H]1[C@@H](O)[C@H](O)[C@@H](CO)O[C@@H]31` [7,2″-dehydrate puerarin], the Arrhythmia latency in test [1] (gavage, 60 mg/kg, two times a day for three days, x ± SD) is reported as 29.25 ± 5.12 s; in test [1] (intravenous injection, 30 mg/kg, once a day for three days, x ± SD), 47.25 ± 19.87 s. The Arrhythmia duration was 2.09 ± 0.98 min in test [1] (gavage, 60 mg/kg, x ± SD) and 17.75 ± 4.61 min in test [1] (intravenous injection, 30 mg/kg, x ± SD). Moreover, the coagulation time in test [2] (0.75 mg/mL (low dose)) is given as 14.7 ± 1.6 min; in test [2] (1.5 mg/mL (medium dose)), 22.7 ± 2.6 min; in test [2] (3 mg/mL), 38.5 ± 2.1 min.
The term IC50 denotes the concentration that gives 50% inhibition. Turning to `CC(=O)Oc1ccccc1C(=O)Oc1ccc2c(=O)c(-c3ccc(O)cc3)coc2c1[C@@H]1O[C@H](CO)[C@@H](O)[C@H](O)[C@H]1O` [7-acetylsalicylic acyl puerarin], in test [3], the 50% inhibitory concentration (IC50) was 910 µM.
